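Tested at 5 concentrations; 48 h exposure; 96-well plates; endpoints linearly interpolated, else capped at highest concentration. The concentration for 50% growth inhibition is given as GI50.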 Activity calls are given as the source filed them. Cut-off read from the data, not from the text of the source: active = GI50 up to about 1.1 µM and inactive = higher.
What was measured:
Assay in all cases: NCI-60 cell line screen, 48 h
NCI-H522 = tested on: NCI-H522
U-251 = tested on: U-251
HOP-62 = tested on: HOP-62
HCT-116 = tested on: HCT-116
EKVX = tested on: EKVX
OVCAR-4 = tested on: OVCAR-4
SF-295 = tested on: SF-295
K562 = tested on: K562
SF-539 = tested on: SF-539
UACC-62 = tested on: UACC-62
COLO 205 = tested on: COLO 205
IGROV-1 = tested on: IGROV-1
SK-OV-3 = tested on: SK-OV-3
SNB-75 = tested on: SNB-75
NCI/ADR-RES = tested on: NCI/ADR-RES
MDA-MB-435 = tested on: MDA-MB-435
PC-3 = tested on: PC-3
MDA-MB-231 = tested on: MDA-MB-231

Structure (SMILES)	GI50 (NCI-H522)	GI50 (U-251)	GI50 (HOP-62)	GI50 (HCT-116)	GI50 (EKVX)	GI50 (OVCAR-4)	GI50 (SF-295)	GI50 (K562)	GI50 (SF-539)	GI50 (UACC-62)	GI50 (COLO 205)	GI50 (IGROV-1)	GI50 (SK-OV-3)	GI50 (SNB-75)	GI50 (NCI/ADR-RES)	GI50 (MDA-MB-435)	GI50 (PC-3)	GI50 (MDA-MB-231)
COc1ccc(-c2onc(-c3c(C)cc(C)cc3C)c2C2=NCCCN2)cc1	14.3 µM (inactive)	22.3 µM (inactive)	> 100 µM (inactive)	28 µM (inactive)	96.8 µM (inactive)	49.9 µM (inactive)	22.8 µM (inactive)	28.8 µM (inactive)	21.6 µM (inactive)	55.2 µM (inactive)	27.7 µM (inactive)	> 100 µM (inactive)	30.6 µM (inactive)	–	–	–	–	–
O=C1[C@@H]2C(c3ccccc3[N+](=O)[O-])=NO[C@@H]2C(=O)N1c1ccc(Cc2ccc(N3C(=O)[C@H]4C(c5ccccc5[N+](=O)[O-])=NO[C@H]4C3=O)cc2)cc1	> 100 µM (inactive)	> 100 µM (inactive)	> 100 µM (inactive)	> 100 µM (inactive)	> 100 µM (inactive)	> 100 µM (inactive)	> 100 µM (inactive)	> 100 µM (inactive)	> 100 µM (inactive)	> 100 µM (inactive)	> 100 µM (inactive)	> 100 µM (inactive)	–	> 100 µM (inactive)	–	–	–	–
COc1ccc(CC(=O)NCCc2ccc(OC)c(OC)c2OC)cc1	> 100 µM (inactive)	> 100 µM (inactive)	> 100 µM (inactive)	> 100 µM (inactive)	> 100 µM (inactive)	–	> 100 µM (inactive)	> 100 µM (inactive)	16.4 µM (inactive)	–	–	> 100 µM (inactive)	> 100 µM (inactive)	> 100 µM (inactive)	–	–	–	–
CCOc1ccc(/N=C(/NC(=O)c2ccccc2)SC)cc1	–	> 100 µM (inactive)	> 100 µM (inactive)	> 100 µM (inactive)	> 100 µM (inactive)	> 100 µM (inactive)	> 100 µM (inactive)	> 100 µM (inactive)	> 100 µM (inactive)	> 100 µM (inactive)	> 100 µM (inactive)	> 100 µM (inactive)	> 100 µM (inactive)	> 100 µM (inactive)	–	–	–	–
C#CCN(C(=O)C(F)(F)F)c1ccc(C(=O)c2ccc(N(CC#C)C(=O)C(F)(F)F)cc2)cc1	14.9 µM (inactive)	31.6 µM (inactive)	48.2 µM (inactive)	34.5 µM (inactive)	61 µM (inactive)	28.7 µM (inactive)	37.8 µM (inactive)	21 µM (inactive)	37.8 µM (inactive)	21.6 µM (inactive)	30.8 µM (inactive)	33.1 µM (inactive)	–	43.4 µM (inactive)	–	–	–	–
O=[N+]([O-])c1ccc(/C=N/C2CCCCC2)cc1	–	> 100 µM (inactive)	> 100 µM (inactive)	> 100 µM (inactive)	> 100 µM (inactive)	> 100 µM (inactive)	> 100 µM (inactive)	> 100 µM (inactive)	> 100 µM (inactive)	> 100 µM (inactive)	> 100 µM (inactive)	> 100 µM (inactive)	> 100 µM (inactive)	> 100 µM (inactive)	–	–	–	–
CCC(C)(O)c1cn(-c2cccc(S(=O)(=O)O)c2)nn1 (centres undefined)	> 100 µM (inactive)	> 100 µM (inactive)	> 100 µM (inactive)	> 100 µM (inactive)	> 100 µM (inactive)	> 100 µM (inactive)	> 100 µM (inactive)	> 100 µM (inactive)	> 100 µM (inactive)	> 100 µM (inactive)	> 100 µM (inactive)	> 100 µM (inactive)	> 100 µM (inactive)	> 100 µM (inactive)	–	–	–	–
O=S1(=O)OCCOS(=O)(=O)C1(Cl)Cl	> 100 µM (inactive)	–	64.9 µM (inactive)	> 100 µM (inactive)	> 100 µM (inactive)	> 100 µM (inactive)	46 µM (inactive)	> 100 µM (inactive)	> 100 µM (inactive)	31.3 µM (inactive)	> 100 µM (inactive)	> 100 µM (inactive)	> 100 µM (inactive)	> 100 µM (inactive)	–	–	–	–
COCCN(CCOC)C(=O)COc1c2cc(C(C)(C)C)cc1Cc1cc(C(C)(C)C)cc(c1OCC(=O)N(CCOC)CCOC)Cc1cc(C(C)(C)C)cc(c1OCC(=O)N(CCOC)CCOC)Cc1cc(C(C)(C)C)cc(c1OCC(=O)N(CCOC)CCOC)Cc1cc(C(C)(C)C)cc(c1OCC(=O)N(CCOC)CCOC)C2	0.655 µM (active)	0.53 µM (active)	1.73 µM (inactive)	0.618 µM (active)	0.434 µM (active)	0.467 µM (active)	1.54 µM (inactive)	0.491 µM (active)	2.34 µM (inactive)	1.18 µM (inactive)	0.562 µM (active)	1.18 µM (inactive)	3.05 µM (inactive)	0.0881 µM (active)	10.7 µM (inactive)	2.09 µM (inactive)	0.659 µM (active)	1.99 µM (inactive)
Cc1cc(N(CCC#N)CCC#N)ccc1/C=C1N=C(/C=C/c2ccccc2)OC(=O)N\1	> 100 µM (inactive)	61.5 µM (inactive)	> 100 µM (inactive)	> 100 µM (inactive)	> 100 µM (inactive)	–	7.41 µM (inactive)	> 100 µM (inactive)	> 100 µM (inactive)	> 100 µM (inactive)	> 100 µM (inactive)	> 100 µM (inactive)	92.3 µM (inactive)	31.3 µM (inactive)	–	–	–	–
COc1ccc(-c2nc(N)nc(-c3cc(C)ccc3O)c2Cl)cc1	26.2 µM (inactive)	39.6 µM (inactive)	41.7 µM (inactive)	39.5 µM (inactive)	20.3 µM (inactive)	11.3 µM (inactive)	60.1 µM (inactive)	> 100 µM (inactive)	31.7 µM (inactive)	29 µM (inactive)	> 100 µM (inactive)	> 100 µM (inactive)	29.9 µM (inactive)	25 µM (inactive)	–	–	–	–
CCO/C=C1\N=C(c2ccccc2Br)OC1=O	> 100 µM (inactive)	–	> 100 µM (inactive)	–	> 100 µM (inactive)	> 100 µM (inactive)	> 100 µM (inactive)	> 100 µM (inactive)	> 100 µM (inactive)	> 100 µM (inactive)	> 100 µM (inactive)	–	> 100 µM (inactive)	> 100 µM (inactive)	–	–	–	–
Cn1c2c([N+](=O)[O-])cccc2c(=O)c2c(O)cc3c(c21)C=CC(C)(C)O3	11.2 µM (inactive)	> 100 µM (inactive)	–	–	6.59 µM (inactive)	20.8 µM (inactive)	24.1 µM (inactive)	39.3 µM (inactive)	22.5 µM (inactive)	21.7 µM (inactive)	44.8 µM (inactive)	34.4 µM (inactive)	46.7 µM (inactive)	23.9 µM (inactive)	–	–	–	–
CCOc1ccc(NC(=O)CC2SC(Nc3ccc(C)cc3C)=NC2=O)cc1 (centres undefined)	5.38 µM (inactive)	36 µM (inactive)	–	> 100 µM (inactive)	> 100 µM (inactive)	90.8 µM (inactive)	> 100 µM (inactive)	52 µM (inactive)	26.7 µM (inactive)	54.2 µM (inactive)	–	> 100 µM (inactive)	–	49.2 µM (inactive)	–	–	–	–
COC(=O)C(C(=O)C(=O)Nc1nnc(S)[nH]1)c1csc(N)n1 (centres undefined)	> 100 µM (inactive)	> 100 µM (inactive)	> 100 µM (inactive)	> 100 µM (inactive)	> 100 µM (inactive)	> 100 µM (inactive)	> 100 µM (inactive)	> 100 µM (inactive)	> 100 µM (inactive)	> 100 µM (inactive)	> 100 µM (inactive)	> 100 µM (inactive)	> 100 µM (inactive)	> 100 µM (inactive)	–	–	–	–
COc1ccc(NC(=O)CCc2cc(C(C)(C)C)[nH]n2)cc1	74 µM (inactive)	> 100 µM (inactive)	> 100 µM (inactive)	> 100 µM (inactive)	> 100 µM (inactive)	–	> 100 µM (inactive)	> 100 µM (inactive)	> 100 µM (inactive)	> 100 µM (inactive)	> 100 µM (inactive)	> 100 µM (inactive)	> 100 µM (inactive)	> 100 µM (inactive)	–	–	–	–
COc1cc(/C=N\O[Si](C)(C)C(C)(C)C)ccc1O[Si](C)(C)C(C)(C)C	–	30 µM (inactive)	> 100 µM (inactive)	32.4 µM (inactive)	> 100 µM (inactive)	> 100 µM (inactive)	78.5 µM (inactive)	32.5 µM (inactive)	41.7 µM (inactive)	> 100 µM (inactive)	> 100 µM (inactive)	> 100 µM (inactive)	> 100 µM (inactive)	> 100 µM (inactive)	–	–	–	–
CCOC(=O)CC1(C(=O)OCC)c2[nH]c3ccccc3c2CCN1Cc1ccccc1 (centres undefined)	13.2 µM (inactive)	15 µM (inactive)	18.1 µM (inactive)	17 µM (inactive)	21.8 µM (inactive)	19.2 µM (inactive)	16.8 µM (inactive)	16.9 µM (inactive)	19.9 µM (inactive)	17.1 µM (inactive)	16.7 µM (inactive)	18.3 µM (inactive)	28.5 µM (inactive)	20.8 µM (inactive)	–	–	–	–
CN(C)[C@@H]1C(O)=C(C(=O)NCNCCCC(=O)O)C(=O)[C@@]2(O)C(O)=C3C(=O)c4c(O)cccc4[C@@](C)(O)[C@H]3C[C@@H]12	> 100 µM (inactive)	> 100 µM (inactive)	> 100 µM (inactive)	> 100 µM (inactive)	> 100 µM (inactive)	> 100 µM (inactive)	> 100 µM (inactive)	> 100 µM (inactive)	> 100 µM (inactive)	> 100 µM (inactive)	> 100 µM (inactive)	> 100 µM (inactive)	> 100 µM (inactive)	–	–	–	–	–

Reference: ChEMBL document CHEMBL1201862, “PubChem BioAssay data set” (2004)
